Laboratory results taken from patent US6262241A, “Compound for detecting and modulating RNA activity and gene expression” (Isis Pharmaceuticals, Inc., priority 1995, dated 2001).

How the values were obtained:
nucleases = details: cited from earlier work
[1] = system: Y STRAND 3'-GAG CAU GGY' AAG GCC AGG (SEQ ID NO: 7); format: binding

Compound	nuclease resistance (nucleases)	Tm, G-C [1]	delta Tm, G-A [1]	delta Tm, G-Bu [1]	delta Tm, G-G [1]	delta Tm, G-T [1]
poly(2'-chloro-2'-deoxyuridylic acid)	resistant to various nucleases					
Nc1cc2c(ncn2[C@@H]2O[C@H](CO)[C@@H](O)[C@H]2O)c(=O)[nH]1 [3-deazaguanosine]		59 C	-2 C	-7 C	+1 C	-1 C
poly(2'-chloro-2'-deoxycytidylic acid)	resistant to various nucleases					
